These results are taken from patent US8685443B2, “Sequestering subunit and related compositions and methods” (Alpharma Pharmaceuticals LLC, priority 2002, dated 2014).

Counter-ions that a name gives are not always drawn.

For data set [1] the following is noted: in comparison to a 15 mg dose of hydrocodone.
Another data set deals with opioid receptors. As to conditions: after oral administration; cited from earlier work.
The test system of the next data set is mu over delta sites. As to conditions: cited from earlier work.
For data set [2] the following is noted: hydrochloride salt; cited from earlier work.

As for Meperidine, in data set [1], the “Calculated Dose (equianalgesic dose)” value was 135.0 mg. Take `C[C@H]1[C@H]2Cc3ccc(O)cc3[C@]1(C)CCN2CC1CC1` [cyclazocine]: in the data set on opioid receptors, the duration of effect was about 24 h.

On to `O=C1CC[C@@]2(O)[C@H]3Cc4ccc(O)c5c4[C@@]2(CCN3CC2CC2)[C@H]1O5` [naltrexone], for which, in the data set on mu over delta sites, the “blocking action, mu over delta sites” value was “strong preferential blocking action against mu over delta sites”. `O=C1CC[C@@]2(O)[C@H]3Cc4ccc(O)c5c4[C@@]2(CCN3CC2CC2)[C@H]1O5` [hydrochloride salt of naltrexone, naltrexone]: the solubility in water entry in data set [2] was “about 100 mg/cc”.

As for `COc1ccc2c3c1O[C@H]1[C@@H](O)C=C[C@H]4[C@@H](C2)N(C)CC[C@@]341` [Codeine], the “Calculated Dose (equianalgesic dose)” value in data set [1] is on record as 90.0 mg.

For `COc1ccc2c3c1OC1C(=O)CC[C@H]4[C@@H](C2)N(C)CC[C@]314` (stereo partly drawn) [Hydrocodone, 4,5-epoxy-3-methoxy-17-methylmorphinan-6-one], the “Calculated Dose (equianalgesic dose)” value in data set [1] is recorded as 15.0 mg. On the same count and under the same terms, the value for `CCC(=O)C(CC(C)N(C)C)(c1ccccc1)c1ccccc1` (stereo not drawn) [Methadone] was 9.0 mg; that for `COc1ccc2c3c1OC1C(=O)CC[C@@]4(O)[C@@H](C2)N(C)CC[C@]314` (stereo partly drawn) [Oxycodone, 4,5-epoxy-14-hydroxy-3-methoxy-17-methylmorphinan-6-one] was 13.5 mg; that for `CN1CC[C@]23CCCC[C@H]2[C@H]1Cc1ccc(O)cc13` [Levorphanol] was 1.8 mg.
